Laboratory results from US9261498B2, “Biomarker for sensitivity to mTOR inhibitor therapy in kidney cancer” (The Regents of the University of California, priority 2005, dated 2016).
“Also recorded” adds a separate entry of the source.

Test system: HIF-1α mRNA
Experiment: Real-time quantitative RT-PCR of HIF-1α transcript
Type: cell-based, human
Settings: 10 nM CCI-779
Description: Total RNA was extracted from SN12C-CSCG, ACHN-CSCG, SN12C-CSCG-VHLshRNA and ACHN-CSCG-VHL shRNA cell lines treated with vehicle or 10 nM of CCI-779 using the RNeasy kit (Qiagen). Two μg of total RNA was used as a template for the production of c DNA through reverse transcription. The reactions were assembled as in a 25 μl final volume as follows: 1 μM primers (random hexamers; Invitrogen), 10 mM DTT, 1X Superscript II buffer, […] of dATP, dCTP, dGTP and dTTP, 10U RNasin, 200 units of Superscript II reverse transcriptase. Each RNA template, primer and nuclease free water were combined and incubated for 10 minutes, then placed in an ice bath. The remaining reaction components were added and each reaction was incubated at 25° C. for 10 minutes, then 42° C. for 60 minutes and finally 70° C. for 15 minutes. Negative control reactions (which contained no RT enzyme) were also assembled. Real-time PCR was performed on an ABI Prism 7700 sequence detector (Applied Biosystems). Primers and specific probes for HIF-1α and 18S were obtained from Assays-on Demand Gene Expression products (Applied Biosystems). […] Threshold cycles (Ct's) for the RT samples were recorded. […] Tracer uptake by the tumors was expressed as the ratio between the maximum intratumoral and mean hepatic counts/pixel. All quantitative values are reported as mean±standard error of the mean (SEM).

## CO[C@H]1C[C@@H]2CC[C@@H](C)[C@@](O)(O2)C(=O)C(=O)N2CCCC[C@H]2C(=O)O[C@H]([C@H](C)C[C@@H]2CC[C@@H](OC(=O)C(C)(CO)CO)[C@H](OC)C2)CC(=O)[C@H](C)/C=C(\C)[C@@H](O)[C@@H](OC)C(=O)[C@H](C)C[C@H](C)/C=C/C=C/C=C/1C [CCI-779]
  HIF-1α transcript (mRNA) levels: no effect; also recorded: without exerting any effect on transcription; also recorded: did not see any changes
